This is an account of results in PMC5291402 (The Plant Pathology Journal, 2017).

Molecules are shown by their SMILES. ≈ marks a conversion by molar mass, not a printed value.

One may read the MBC as the lowest tested concentration that kills the bacteria rather than only halting them.

For test [1], the system named is Xanthomonas citri subsp. citri 8-4 (XcsM5), rpsL41 (K42R in S12). It is filed as cell-based.
The subject of test [2] is Xanthomonas citri subsp. citri 19-18 (XscW1), WT. In words: Streptomycin MIC/MBC of the strains used. Type of test: cell-based.
The test system of test [3] is Xanthomonas citri subsp. citri 57-2 (XcsM6), strB located in Tn5393. Briefly: Streptomycin MIC/MBC of the strains used. Type of test: cell-based.
Test [4] relates to Xanthomonas citri subsp. citri 27-13 (XcsM8), rpsL41 & strB double mutant. It is filed as cell-based.
The test system of test [5] is SR strain XccM8. It is filed as in vivo, Xanthomonas citri subsp. citri. The note with it: 50 μg/ml or 100 μg/ml, SR mutant XccM8, citrus leaves.
In test [6] the test system is Xanthomonas citri subsp. citri 10-5 (XscW2), WT. In words: Streptomycin MIC/MBC of the strains used. Type of test: cell-based.
For test [7], the system named is wild type strain XccW2. It is filed as in vivo, Xanthomonas citri subsp. citri.
The subject of test [8] is wild type strains of Xcc. Briefly: Streptomycin MIC, wild type strains. Type of test: cell-based, Xanthomonas citri subsp. citri. As to conditions: Xanthomonas citri, read-out: MICs of wild type strains of Xcc.

Consider `[H]/N=C(/N)N[C@H]1[C@H](O)[C@@H](O)[C@H](O[C@@H]2O[C@@H](C)[C@](O)(C=O)[C@H]2O[C@@H]2O[C@@H](CO)[C@H](O)[C@@H](O)[C@@H]2NC)[C@@H](N/C(N)=N\[H])[C@@H]1O` [Streptomycin], for which the MIC is 6,000 μg/ml in test [1]; 1 µg/mL in test [2]; 3330 µg/mL in test [3]; 3,000 μg/ml in test [4]; 2 µg/mL in test [6]; 1 to 2 µg/mL (≈ 1.72 to 3.44 µM) in test [8]. Besides, the MBC in test [3] came to 3670 µg/mL. Also, in test [5], the “suppression of disease progress” value was “did not suppress the disease progress”. Further, in test [7] (50 μg/ml, wild type Xcc, citrus leaves (data not shown)), the “delay of the first pustule formation” value was “about 1 day”. Also, the “days to form the first yellowish halo around the pustule (index 2)” value in test [7] (100 μg/ml, co-infiltrated with wild type Xcc into citrus leaves) came out at 10 days. Also, the “suppression of symptom development” value in test [7] (wild type Xcc, citrus leaves, monitored 17 days after inoculation) is recorded as “suppressed up to 17 days”.
